The values that follow come from the METLIN SMRT retention time set (Domingo-Almenara et al. 2019).

The data set is described as follows: gradient 5% acetonitrile 3 min, to 50% in 2 min, to 85% in 15 min, held 3 min, 100 µL/min. The note with it: column: Zorbax Extend-C18 2.1 x 50 mm; eluents: water / acetonitrile, 0.1% formic acid. The method, boiled down: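 Retention times come from adduct peaks that were picked computationally and then checked by hand. The standards, pure and pooled in mixtures of ~100 molecules, were run on a Zorbax Extend-C18 column (2.1 × 50 mm, 1.8 μm) at 100 μL/min with water and acetonitrile, each with 0.1% formic acid. Detection was by quadrupole time-of-flight mass spectrometry in positive and negative ionization mode, with a dead volume of 40 μL and a dwell volume of 900 μL.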
`CCn1cc(C(=O)Nc2cccc(C)c2C)c2cccnc21` had an RP-LC retention time of 854 s.
The same measure for `O=C(Nc1cccc(N2CCCCC2=O)c1)c1ccc(Br)o1`: 680 s; for `CCc1nc(-c2cc(S(=O)(=O)N3CCN(c4ccc(F)cc4)CC3)c(C)s2)cs1`: 1220 s; for `COc1ccc(-c2c(C)noc2NC(C)=O)cc1S(=O)(=O)Nc1ccc(Cl)cc1`: 766 s.
Consider `CN(CCc1noc(-c2ccc(F)cc2)n1)C(=O)NCCc1ccccc1`, for which the RP-LC retention time was determined as 909 s.
Take `Cc1cc(C(=O)N2CCCCCC2)nc2cc(-c3cccs3)nn12`: the RP-LC retention time was 977 s.
`CCOC(=O)c1cc2c([nH]c1=O)CC(c1ccccc1)CC2=O` (stereo not given) returned an RP-LC retention time of 735 s.
The same measure for `CCOc1ccc(C(=O)N2CCC3(CC2)NC(=O)c2cc(C)ccc2N3CC)cc1`: 878 s; for `Cc1noc(-c2nn(C)c3c2CN(C(=O)Nc2ccccc2C(F)(F)F)CC3)n1`: 709 s.
For the compound `CNC(=O)CCNc1c(-c2cccc(F)c2)nc2cnccn12`, the RP-LC retention time was 606 s.
`CCn1ccc2c(cc(C(=O)Nc3ccc(F)cc3C)n2C)c1=O` came in with an RP-LC retention time of 726 s.
The same measure for `CCOC(=O)c1c(C)[nH]c(NC(=O)Nc2ccccc2C)c1C`: 912 s; for `Cc1c(N2CCN(C(=O)c3cccc(F)c3)CC2)c(=O)n(C)c(=O)n1C`: 698 s.
To `CCOc1ccc(NC(=O)Cc2nnc(-c3ccncc3)o2)cc1` belongs 670 s; to `COc1ccc(Cl)cc1S(=O)(=O)N1CCC(OC2CCN(C)CC2)CC1`, 791 s; to `CSc1cccc(NC(=O)N(C)CCc2noc(-c3ccc(F)cc3)n2)c1`, 922 s.
To `CCC(C(=O)Nc1cccc(C)c1)n1cnc2nc3c(cc2c1=O)CCCC3` (stereo not given) belongs 834 s; to `Cc1ccc(F)cc1S(=O)(=O)N1CCc2c(c(-c3nnc(-c4ccc(F)cc4)o3)nn2C)C1`, 1000 s.
`CSc1ccc(-c2nc3ncccn3c2Nc2ccc(C)c(C)c2)cc1` registered an RP-LC retention time of 889 s.
To `CCCCN(C)C(=O)c1ccc2c(c1)NC(=O)C(CC(C)C)N2` (stereo not given) belongs 581 s; to `CCc1ccc(S(=O)(=O)c2cnc(N3CCN(c4cccc(C)c4)CC3)nc2N)cc1`, 1220 s; to `O=C(NCc1ccc2c(c1)OCO2)C1CCc2nc(N3CCCC3)ncc2C1` (stereo not given), 631 s.
The same measure for `COc1ccc(-n2ccnc(NC(=O)Nc3ccc(F)c(Cl)c3)c2=O)cc1`: 1020 s.
To `O=C(c1cn(-c2cc(-c3nc(C4CC4)no3)ccn2)cn1)N1CCCC1` belongs 767 s; to `CC1CCN(C(=O)CCCN2C(=O)CCn3nc(-c4cn(C)c5ccccc45)cc32)CC1`, 880 s.
In turn, `Cc1cc(NC(=O)C2CCN(C(=O)c3ccco3)CC2)no1` had an RP-LC retention time of 630 s.
To `Cc1ccc(-c2nocc2CCC(=O)NCc2ccc(F)cc2)cc1` belongs 919 s.
To `CCn1cc(-c2nc(C)c(C(=O)N3CCCCCC3)s2)c2cccnc21` belongs 942 s; to `CC(C)n1c(=O)sc2cc(S(=O)(=O)N3CCC(C(=O)NC4CCCCCCC4)CC3)ccc21`, 1040 s.
The same measure for `Cc1nnc(-c2c(S(=O)(=O)NC3CCCCCC3)c(C)n(C)c2C)o1`: 900 s; for `CN1CCC(CCNC(=O)C2CCc3sc(C(=O)N4CCCC4)cc3C2)CC1` (stereo not given): 579 s; for `O=C(NC1CCCC1)c1cc2sccc2n1Cc1ccc(F)cc1`: 1080 s.
`CCN1CCCC1CNS(=O)(=O)c1cc(-c2nc(C)c(C(=O)N3CCCC3)s2)cs1` (stereo not given) came in with an RP-LC retention time of 604 s.
Take `C=CCN1C(=O)COc2ccc(-c3csc(NC(=O)C4CCCCC4)n3)cc21`: the RP-LC retention time is 1060 s.
The same measure for `OC1(c2ccccn2)CCOC2(CCN(Cc3cccc(Cl)c3)CC2)C1` (stereo not given): 584 s; for `CSc1ccc(CCNC(=O)Cn2c(=O)c3cccn3c3ccc(F)cc32)cc1`: 897 s.
The same measure for `O=C(Nc1ccc(OCC(=O)N2CCN(c3ccccc3Cl)CC2)nc1)C1CC1`: 818 s; for `CCOCCCNC(=O)C1CCCN(c2ncc(-c3cccc(F)c3)cn2)C1` (stereo not given): 902 s; for `Cc1nn(-c2ccc(Cl)cc2)c(C)c1S(=O)(=O)N1CCC(C(=O)N2CCCC2)CC1`: 868 s.
The compound `CCC(=C(c1ccccc1)c1ccc(OCCN(C)C)cc1)c1ccccc1` had an RP-LC retention time of 1010 s.
Turning to `COc1ccc(N2CC(c3nc(-c4cccc(Cl)c4)no3)CC2=O)cc1` (stereo not given), the RP-LC retention time is 973 s.
To `Cc1csc(-c2ccc(N3CCN(C(=O)c4nn(C)c5ccccc45)CC3)nc2)n1` belongs 864 s; to `CCC(C)Nc1nc(NC)nc(-n2cnc(SC)n2)n1` (stereo not given), 790 s.
To `COc1ccccc1CCNC(=O)Cn1ccc2ccccc21` belongs 891 s; to `Cn1cc(NC(=O)N2CCN(c3ccccn3)CC2)c2ccccc2c1=O`, 538 s; to `COc1ccc(N2CC(c3noc(-c4ccc5c(c4)OCO5)n3)CC2=O)cc1` (stereo not given), 874 s.
The same measure for `CN1CCCc2cc(C(=O)NCc3cccc(F)c3)sc21`: 915 s; for `CS(=O)(=O)N1CCCc2ccc(NS(=O)(=O)CCN3C(=O)CCCC3=O)cc21`: 622 s.
`CC(C)(C)c1noc(-c2ccc(-n3cnc(C(=O)N4CCOCC4)c3)nc2)n1` came in with an RP-LC retention time of 793 s.
To `COc1ccc(OC)c(CNC(=O)CCc2c(C)nn(-c3cc(N(C)C)ncn3)c2C)c1` belongs 726 s.
`Cc1cccc(-c2nc(Cn3nnc(-c4nc(-c5ccc(Cl)cc5)no4)c3C)c(C)o2)c1` displayed an RP-LC retention time of 1320 s.
The same measure for `COC(=O)c1ccc(NC(=O)N2CCOc3ccc(C)cc32)cc1`: 679 s; for `CC(NC(=O)c1sc2ncccc2c1-n1cccc1)c1ccc(F)cc1` (stereo not given): 1070 s; for `CN(C)CCn1nnc2cc(-c3noc(-c4ccc(F)cc4)n3)ccc21`: 651 s.
To `CCOC(=O)C1CCN(C(=O)CN2C(=O)C3CCCCN3c3ccc(C(=O)N(C)C)cc32)CC1` (stereo not given) belongs 732 s; to `CC(C)n1c(=O)c(NCc2ccccc2C(F)(F)F)nc2ccncc21`, 714 s.
For `CCOc1ccccc1CNC(=O)CCc1nnc2c3cc(-c4ccc(OC)cc4)nn3ccn12`, the RP-LC retention time is 797 s.
The same measure for `CCn1c(C(=O)N2CCN(c3ccccn3)CC2)cc2sccc21`: 636 s.
The same measure for `COc1ncc(C(=O)NCc2ccccc2Cl)cn1`: 737 s.
`COc1ccc(Cc2noc(Cc3nnc(-c4cccc(Cl)c4)o3)n2)cc1` yielded an RP-LC retention time of 1010 s.
